Columns and labels:
[1] = test system: LPS-induced complement activation; assay: In vivo efficacy assay of LPS-induced complement activation in mice; details: female C57BL/6J mice, LPS 100 μg intraperitoneal, PO
Method: Experimental objective: To investigate the inhibitory effect of the compounds of the present disclosure on complement activation in mice induced by LPS stimulation.
Experimental animals: Female C57BL/6J mice, 7 to 9 weeks old, weighing between 17 to 23 g.
Experimental procedure: 100 μg of lipopolysaccharide (LPS) in Salmonella typhimurium (Sigma) dissolved in 100 μL of sterile PBS was intraperitoneally injected to induce complement activation in mice. Negative control animals were intraperitoneally injected 100 μL of sterile PBS and administered alone by tube feeding (PO). Positive control animals were intraperitoneally injected LPS and PO drug vehicles (0.5% (w/v) methyl cellulose and 0.5% (v/v) Tween 80).
Sample collection: 0.3 mL of blood samples were collected from the orbital venous plexus. All blood samples were added to commercially available EDTA-K2 anticoagulant tubes with a specification of 1.5 mL. After collection, within half an hour, the blood sample was centrifuged at 4° C., 3000 g for 10 min to aspirate the supernatant plasma, which was put in dry ice immediately, and stored in a refrigerator at −80° C. for Western blot analysis of downstream C3d protein levels after complement activation.
Sample analysis: Mouse plasma (5 μL)+Lysis buffer (27.5 μL)+Loading buffer (12.5 μL)+Reducing buffer (5 μL) were mixed well and incubated at 100° C. for 15 min with a loading volume of 5 μL/well, i.e., a loading volume of plasma of 0.5 μL per well.
Test compounds: positive compound LNPO23, the final product of Example 158, the final products (compound 159A and compound 159B) of Example 159, and compound 11 of Example 75.

[2] = Pharmacokinetic activity assay in mice; format: in vivo; details: IV 1 mg/kg, PO 10 mg/kg
Method: Experimental objective: The test substance was administered to mice via single-dose intravenous and oral gavage routes, and its plasma concentration was measured to evaluate the pharmacokinetic characteristics in mice.
Experimental animals: C57 mice or other available test mice
IV dose: 1 mg/kg; vehicle: 0.5% DMSO or 0.5% MeOH-5% pharmaceutical grade polyethylene glycol-15 hydroxystearate-PBS
Sample collection: 0.03 mL of blood samples were collected from the saphenous vein in experimental animals by puncture at each time point, and the actual blood collection time was recorded. All blood samples were added to commercially available EDTA-K2 anticoagulant tubes with a specification of 1.5 mL (supplied by Jiangsu Kangjian Medical Apparatus Co., Ltd.). After collection, within half an hour, the blood sample was centrifuged at 4° C., 3000 g for 10 min to aspirate the supernatant plasma, which was put in dry ice immediately, and stored in a refrigerator at −80° C. for LCMS/MS analysis.
Blood sampling points: 5 min, 15 min, 30 min, 1 hour, 2 hours, 4 hours, 6 hours, 8 hours, 12 hours, 20 hours, 24 hours.
Test compounds: positive compound LNP023, the final product of Example 158, the final products (compound 159A and compound 159B) of Example 159, and compound 11 of Example 75.

PNH-like erythrocytes = assay: Alternative pathway inhibition assay of PNH-like erythrocyte; format: cell-based; details: 1 h, AET/anti-CD55 sensitized human erythrocytes, acidified normal human serum pH 6.4, 37° C. 60 min
Description: Principle: PNH, as an indication for complement inhibitors, was typically tested using the Ham test, which states that acidified serum was capable of activating the alternative pathway, leading to hemolysis of PNH erythrocytes, while normal erythrocytes remained unaffected. It was reported in the literature that AET could disrupt the complement regulatory proteins on the surface of normal human erythrocytes, resulting in PNH-like erythrocytes.
Reagents and instrument: PBS buffer, normal human serum (NHS), Alsever's solution, microplate reader, MgCl2, EGTA, EDTA, HCl, normal human erythrocytes, AET; anti-CD-55 antibody (BRIC216; Sigma)
PBS buffer: Potassium dihydrogen phosphate (KH2PO4): 0.24 g/L, disodium hydrogen phosphate (Na2HPO4): 1.44 g/L, sodium chloride (NaCl): 8 g/L, potassium chloride (KCl): 0.2 g/L, pH 7.4
PBSE buffer: PBS, 10 mM EDTA; pH 7.4
PBSMg buffer: PBS, 1 mM Mg++; pH 6.4
10× Mg-EGTA stock solution: 25 mM MgCl2, 80 mM EGTA; pH 6.4
10× EDTA stock solution: 100 mM EDTA; pH 6.4
Method: The inhibition of alternative pathway-mediated erythrocyte lysis was evaluated using an in vitro model of PNH. Normal human erythrocytes were sensitized with 2-aminoethylisothiouronium bromide (AET) to inactivate complement regulatory proteins on the cell surface and induce a PNH-like phenotype.
2 mL of normal human erythrocytes were mixed with 2 mL of Alsever's solution, washed three times with PBS, and centrifuged at 2500×g, with the upper 10% of the erythrocytes being removed each time. The washed 1 mL erythrocytes were sensitized by incubation with 4 mL of 8% w/v AET (pH 8.0) at 37° C. for 10 min, followed by three additional washes with PBS. Subsequently, the concentration of erythrocytes in PBS (erythrocyte stock solution) was adjusted with PBS such that an absorbance of 1.5-2.0 at 412 nm (indicating hemoglobin release) was achieved upon dilution of 10 μL erythrocyte stock solution with 190 μL water.
1.5 mL of the erythrocyte stock solution was mixed with anti-CD55 antibody (BRIC216; Sigma/final concentration of 6.7 μg/mL) and incubated on ice for 30 min. After being washed once with PBS, the treated erythrocytes were resuspended in PBS-Mg to the initial volume of 1.5 mL. The following AP-mediated lysis assay was performed on this erythrocyte preparation with induced PNH phenotype.
The normal human serum was acidified with 0.2 M HCl to pH 6.4, and supplemented with MgCl2 and EGTA to final concentrations of 2.5 and 8 mM, respectively. 80 μL of this serum mixture was mixed with 10 μL of PBS-Mg (negative blank) or 10 μL of samples at various concentrations. Normal human serum was acidified with 0.2 M HCl to pH 6.4, supplemented with EDTA to a final concentration of 10 mM, and 80 μL of this serum mixture was mixed with 10 μL of PBS-Mg (negative blank) as a blank positive control. The sample was incubated with serum on ice for 5 min, and then 10 μL of sensitized erythrocytes were added. The final serum concentration in the reaction mixture was approximately 64% v/v, incubated at 37° C. for 60 min, and the reaction was quenched by adding 50 μL of ice-cold PBS containing 10 mM EDTA. The remaining unlysed cells were centrifuged at 2500×g for 10 min, and 100 μL of the supernatant was transferred to a 96-well plate to measure its absorbance at 412 nm. The amount of hemoglobin released during erythrocyte lysis was thereby quantified. […] represented the relative lysis of PNH-like erythrocytes (expressed in %; set to 0% for the PC sample and 100% for the NC sample). The absorbance was measured using a microplate reader (Molecular Devices SpectraMax 3X). The IC50 value was calculated by applying nonlinear regression with GraphPad Prism 9.0 software from the percentage of hemolysis as a function of the test compound concentration.

Row | SMILES | inhibition of LPS-induced complement activation (plasma C3d levels), compared with LNP023 [1] | clearance rate during in vivo metabolism, compared with LNP023 [2] | half-life during in vivo metabolism, compared with LNP023 [2] | IC50 (PNH-like erythrocytes) [µM]
1 | CCCC1CCN(C(=O)c2c(OC)cc(C)c3[nH]ccc23)[C@H](c2ccc(C(=O)O)cc2)C1 (mixture of isomers) [Final product of Example 158, 4-((2S)-1-(5-Methoxy-7-methyl-1H-indole-4-carbonyl)-4-propylpiperidin-2-yl)benzoic acid] | superior or equivalent | comparable or superior | comparable or superior | 0.05 to 0.25
2 | CCCC1CCN(C(=O)c2c(OC)cc(C)c3[nH]ccc23)C(c2ccc(C(=O)O)cc2)C1 (single isomer, unassigned) [Compound 159A] | superior or equivalent | comparable or superior | comparable or superior | 0.05 to 0.25
3 | CCO[C@H]1CCN(Nc2c(OC)cc(C)c3[nH]ccc23)[C@H](c2ccc(C(=O)O)cc2)C1 [Compound 11 of Example 75, 4-((2S,4S)-4-Ethoxy-1-((5-methoxy-7-methyl-1H-indol-4-yl)amino)piperidin-2-yl)benzoic acid] | superior or equivalent | comparable or superior | comparable or superior | 0.1 to 0.3

Reference: patent US20260184689A1, “PIPERIDINE-SUBSTITUTED BENZOIC ACID COMPOUND, AND PHARMACEUTICAL COMPOSITION AND USE THEREOF” (SHANGHAI YISHENG BIOPHARMACEUTICAL COMPANY LIMITED, priority 2022, published 2026)
